Here are results for 18 molecules from ChEMBL document CHEMBL1147475, “2-Alkyl-4-arylimidazoles: structurally novel sodium channel modulators” (Bioorg Med Chem Lett, 2004).

SMILES strings stand for the structures.

The target in assay [1] is Sodium channel alpha subunits; brain (Types I, II, III) (Rattus norvegicus, UniProt P04775+P04774+P08104). The assay is described as follows: Concentration required to inhibit [3H]BTX binding to Sodium channel of rat brain.
In assay [2] the test system is SH-SY5Y. Kind of assay: Cytoprotection of SH-SY5Y cells against veratridine-induced cytotoxicity. The assay is classed as functional, cell-based. As to conditions: Homo sapiens.

As to `Fc1ccc(-c2c[nH]c(CC3CCCCC3)n2)cc1`, the IC50 in assay [1] came out at 146 nM.

Molecule `c1ccc(-c2c[nH]c([C@H]3Cc4c([nH]c5ccccc45)[C@@H](c4ccccc4)N3)n2)cc1` gave an IC50 in assay [1] of 1460 nM.

On to `Cc1nc(-c2ccc(-c3ccccc3)cc2)c[nH]1`, for which the IC50 in assay [1] was 1460 nM.

For `CCCC(CCC)c1nc(-c2ccc(-c3ccccc3)cc2)c[nH]1`, the IC50 in assay [1] is recorded as 100 nM.

As to `CCCCCC(CCCCC)c1nc(-c2ccc(-c3ccccc3)cc2)c[nH]1`, the IC50 in assay [2] stood at 810 nM; in assay [1], 8 nM.

With `CCN(CC)CC(=O)Nc1c(C)cccc1C` [LIDOCAINE], in assay [1], the IC50 is 56000 nM.

In assay [1], `c1ccc(-c2ccc(-c3c[nH]c(CC4CCCCC4)n3)cc2)cc1` displayed an IC50 of 70 nM.

The molecule `CCCC(CCC)c1nc(-c2ccc(F)cc2)c[nH]1` displayed an IC50 in assay [1] of 518 nM.

For `CCCC(CCC)c1nc(-c2ccc(C(C)(C)C)cc2)c[nH]1`, the IC50 in assay [2] was 430 nM; in assay [1] it was 30 nM.

For the molecule `CCCCCC(CCCCC)c1nc(-c2ccccc2)c[nH]1`, the IC50 in assay [1] is 86 nM.

Regarding `NC(=O)N1c2ccccc2C=Cc2ccccc21` [CARBAMAZEPINE], in assay [1], the IC50 stood at 167000 nM.

In turn, `Nc1nnc(-c2cccc(Cl)c2Cl)c(N)n1` [LAMOTRIGINE] gave an IC50 in assay [1] of 31000 nM.

Take `CCCCCCc1nc(-c2ccc(-c3ccccc3)cc2)c[nH]1`: the IC50 in assay [2] came out at 450 nM; in assay [1] it was 16 nM.

In assay [1], `CCCC(CCC)c1nc(-c2ccc(-c3ccc(Br)cc3)cc2)c[nH]1` showed an IC50 of 322 nM.

Turning to `c1ccc(-c2ccc(-c3c[nH]c(CCCC4CCCCC4)n3)cc2)cc1`, the figures for the IC50 in assay [2] and in assay [1] were 1000 nM and 19 nM, respectively.

With `CCCCCCc1nc(-c2ccc(CC(C)C)cc2)c[nH]1`, the IC50 turned out to be 380 nM in assay [2] and 28 nM in assay [1].

As to `c1ccc(-c2ccc(-c3c[nH]c(CCC4CCCCC4)n3)cc2)cc1`, the IC50 in assay [2] was determined as 760 nM; in assay [1], 26 nM.

For the molecule `CCCCCC(CCCCC)c1nc(-c2ccc(F)cc2)c[nH]1`, the figures for the IC50 in assay [2] and in assay [1] were 770 nM and 25 nM, respectively.

The term IC50 denotes the concentration that gives 50% inhibition. A higher IC50 goes with weaker potency.
